Laboratory results published in patent US9107415B2, “2-(substituted-phenyl)-cyclopentane-1,3-dione compounds, and derivatives thereof” (Syngenta Limited, priority 2011, dated 2015).

Experiments:
Format in all cases: in vivo
Solanum nigrum (SOLNI) [1] = assay: Biological Example 1 glasshouse screen, post-emergence herbicidal activity; conditions: application rate 250 g/ha, evaluated after 13 days
Method: (§1) Seeds of a variety of test species were sown in standard soil in pots. After cultivation for one day (pre-emergence) or after 8 days cultivation (post-emergence) under controlled conditions in a glasshouse (at 24/16°C., day/night; 14 hours light; 65% humidity), the plants were sprayed with an aqueous spray solution derived from the formulation of the “technical”(i.e. unformulated) active ingredient in acetone/water (50:50) solution containing 0.5% Tween 20 (polyoxyethylene sorbitan monolaurate, CAS Registry Number 9005-64-5). The test plants were then grown in a glasshouse under controlled conditions in a glasshouse (at 24/16°C., day/night; 14 hours light; 65% humidity) and watered twice daily. After 13 days for pre- or post-emergence, the test was evaluated visually, and an assessed percentage phytotoxicity score given for each herbicidal application on each plant/weed species (with 100%=total damage to plant; 0%=no damage to plant).
(§2) Test plants: Alopecurus myosuroides (ALOMY), Setaria faberi (SETFA), Echinochloa crus-galli (ECHCG), Solanum nigrum (SOLNI), Amaranthus retroflexus (AMARE) and Ipomoea hederacea (IPOHE). ALOMY, SETFA and ECHCG are grassy monocotyledonous weeds. SOLNI, AMARE and IPOHE are dicotyledonous (broadleaved) weeds.

[2] = test system: Ipomoea hederacea (IPOHE); assay: as above; conditions: application rate 250 g/ha, evaluated after 13 days
Method: as §1, §2

Setaria faberi (SETFA) [3] = assay: as above; conditions: application rate 250 g/ha, evaluated after 13 days
Method: as §1, §2

[4] = test system: Amaranthus retroflexus (AMARE); assay: as above; conditions: application rate 250 g/ha, evaluated after 13 days
Method: as §1, §2

[5] = test system: Alopecurus myosuroides (ALOMY); assay: as above; conditions: 312 h, application rate 250 g/ha, evaluated after 13 days, read-out: ALOMY percentage phytotoxicity
Procedure, shortened: (§3)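 Read-out: visual percentage phytotoxicity at 13 days, 0% no damage to 100% total damage. Spray solution of unformulated compound in 50:50 acetone/water plus 0.5% Tween 20, applied to potted plants one day after sowing (pre) or after 8 days' growth (post).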

[6] = test system: Echinochloa crus-galli (ECHCG); assay: as above; conditions: 312 h, application rate 250 g/ha, evaluated after 13 days, read-out: ECHCG percentage phytotoxicity
Procedure, shortened: as §3

[7] = test system: Alopecurus myosuroides (ALOMY); assay: Biological Example 2 post-emergence herbicidal activity (comparative data); conditions: 312 h, read-out: ALOMY percentage phytotoxicity
Method: as §1
(§4) Comparative herbicidal data are given for certain exemplified compounds with 4-(prop-1-ynyl)-2,6-dimethylphenyl or 4-(chloroethynyl)-2,6-dimethylphenyl headgroups, compared to the corresponding comparative compounds with 4-ethynyl-2,6-dimethylphenyl headgroups, as follows.
(§5) Except where specified otherwise, the glasshouse screen for herbicidal activity is substantially the same as that presented in Biological Example 1 hereinabove. The weed abbreviations are as defined in Biological Example 1.

Setaria faberi (SETFA) [8] = assay: as above
Method: as §1, §4, §5

[9] = test system: Echinochloa crus-galli (ECHCG); assay: as above; conditions: 312 h, read-out: ECHCG percentage phytotoxicity
Method: as §1, §4, §5

Solanum nigrum (SOLNI) [10] = assay: Biological Example 1 glasshouse screen, pre-emergence herbicidal activity; conditions: application rate 250 g/ha, evaluated after 13 days
Method: as §1, §2

[11] = test system: Ipomoea hederacea (IPOHE); assay: as above; conditions: application rate 250 g/ha, evaluated after 13 days
Method: as §1, §2

Setaria faberi (SETFA) [12] = assay: as above; conditions: application rate 250 g/ha, evaluated after 13 days
Method: as §1, §2

[13] = test system: Amaranthus retroflexus (AMARE); assay: as above; conditions: application rate 250 g/ha, evaluated after 13 days
Method: as §1, §2

[14] = test system: Alopecurus myosuroides (ALOMY); assay: as above; conditions: 312 h, application rate 250 g/ha, evaluated after 13 days, read-out: ALOMY percentage phytotoxicity
Procedure, shortened: as §3

[15] = test system: Echinochloa crus-galli (ECHCG); assay: as above; conditions: 312 h, application rate 250 g/ha, evaluated after 13 days, read-out: ECHCG percentage phytotoxicity
Procedure, shortened: as §3

Avena fatua (AVEFA) [16] = assay: Biological Example 4A (previously-formulated compounds) post-emergence herbicidal activity on grassy weeds; conditions: 14 DAA, EC formulation, mean of two
Method: (§6) Seeds of a variety of test species are sown in standard soil in pots. After cultivation for 14 days under controlled conditions in a glasshouse (at 22/16°C., day/night; 16 hours light; 65% humidity), the plants are sprayed with the test compounds. The test plants are then grown on under controlled conditions in the glasshouse (at 22/16°C., day/night; 16 hours light; 65% humidity) and are watered twice daily. After 14 days the test is evaluated visually (100%=total damage to plant; 0%=no damage to plant). Post-emergence herbicidal activity (phytotoxicity) data, on certain grassy monocotyledonous weeds and cereal crops in a glasshouse, are measured 14 days after application of the herbicide (14 DAA), inter alia for post-emergence application rates of 30 or 60 g/ha of the test herbicide, with or without 50 g/ha of cloquintocet-mexyl safener applied at substantially the same time as the herbicide.
(§7) Herbicidal activity (phytotoxicity) is evaluated visually, and an assessed percentage phytotoxicity score is given for each herbicidal application on each plant species (with 100%=total damage to plant; 0%=no damage to plant). Two repetitions are made for each experiment and the mean herbicidal activity (phytotoxicity) data is reported.
(§8) Biological Example 4A is used on previously-formulated compounds, typically compounds previously formulated as an emulsifiable concentrates (EC), wherein the EC contains the herbicidal compound under test dissolved in one or more organic solvents, and wherein the EC also contains one or more surfactants or emulsifiers. In the test method, the EC containing the herbicide (plus a cloquintocet-mexyl formulation if this is also present) is generally diluted with water to form an emulsion, and the resulting emulsion is sprayed onto the emerged weed and/or crop plants.
(§9) For the testing of Compounds A-5 and A-6, each of these compounds was separately formulated into an emulsifiable concentrate containing 10% w/w of the herbicidal compound, 9% w/w of castor oil ethoxylate (an emulsifier, present as Emulsogen™EL360), 6% w/w of calcium dodecylbenzenesulfonate (linear) (an emulsifier, present as Nansa™EVM 63B), 3% w/w of tristyrylphenol ethoxylate having 16 moles of ethoxylation per mole of molecule (an emulsifier, present as Soprophor™BSU), 10% w/w of benzyl benzoate (as solvent), 20% w/w of 1-methyl-2-pyrrolidone (as solvent), and the remainder of N-octyl-2-pyrrolidone (as solvent). The solvents and surfactants/emulsifiers were first mixed together, to form a “blank” EC, and the herbicidal compound was then added to and dissolved in this solvent and emulsifier mixture to prepare the emulsifiable concentrate, to give an EC formulation/composition containing approximately 100 g/L of active herbicidal compound.
(§10) In the tests of Compounds A-5 and A-6, the cloquintocet-mexyl was pre-formulated as a formulation/composition containing 10% w/w cloquintocet-mexyl, 6% w/w Emulsogen™ EL360 (as emulsifier), 4% w/w Nansa™EVM 63B (as wetting agent), 1% w/w Drapex™39 (epoxidised soybean oil), 20% w/w 1-methyl-2-pyrrolidone (as solvent), and the remainder as Solvesso™200ND (a mixture of heavy aromatic hydrocarbons, as a solvent).
(§11) Test plants: Avena fatua (AVEFA), Lolium multiflorum (LOLMU), Setaria viridis (SETVI), Poa annua (POAAN), Alopecurus myosuroides (ALOMY). All five of these are grassy monocotyledonous weeds.

[17] = test system: Lolium multiflorum (LOLMU); assay: as above; conditions: 14 DAA, EC formulation, mean of two
Method: as §6, §7, §8, §9, §10, §11

[18] = test system: Alopecurus myosuroides (ALOMY); assay: as above; conditions: 14 DAA, EC formulation, mean of two
Method: as §6, §7, §8, §9, §10, §11

Setaria viridis (SETVI) = assay: as above; conditions: 14 DAA, EC formulation, mean of two
Method: as §6, §7, §8, §9, §10, §11

Poa annua (POAAN) = assay: as above; conditions: 14 DAA, EC formulation, mean of two
Method: as §6, §7, §8, §9, §10, §11

Winter Barley “Suzuka” = assay: Biological Example 4A post-emergence phytotoxicity on cereal crops; conditions: 14 DAA, EC formulation, mean of two
Method: as §6, §7, §8, §9, §10

Winter Wheat “Hereward” = assay: as above; conditions: 14 DAA, EC formulation, mean of two
Method: as §6, §7, §8, §9, §10

[19] = test system: Spring Barley “Harrington”; assay: as above; conditions: 14 DAA, EC formulation, mean of two
Method: as §6, §7, §8, §9, §10

Spring Wheat “Teal” = assay: as above; conditions: 14 DAA, EC formulation, mean of two
Method: as §6, §7, §8, §9, §10

Avena fatua (AVEFA) [20] = assay: Biological Example 1 glasshouse screen, post-emergence herbicidal activity; conditions: 312 h, application rate 250 g/ha, evaluated after 13 days, read-out: AVEFA percentage phytotoxicity
Procedure, shortened: (§12)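 Pots in a glasshouse (24/16°C day/night, 14 h light, 65% humidity) were sprayed one day after sowing (pre-emergence) or after 8 days (post-emergence), using acetone/water (50:50) with 0.5% Tween 20. Phytotoxicity was scored visually as % damage (0-100) 13 days after application.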

Lolium perenne (LOLPE) = assay: as above; conditions: 312 h, application rate 250 g/ha, evaluated after 13 days, read-out: LOLPE percentage phytotoxicity
Procedure, shortened: as §12

[21] = 30 g/ha, cloquintocet-mexyl 0 g/ha
[22] = 30 g/ha, cloquintocet-mexyl 50 g/ha
[23] = 60 g/ha, cloquintocet-mexyl 0 g/ha
[24] = 60 g/ha, cloquintocet-mexyl 50 g/ha

`Cc1cc(C#CCl)cc(C)c1C1=C(O)CC(Cc2ccccn2)C1=O` (racemic) [Compound A-3, rac-2-(4-Chloroethynyl-2,6-dimethylphenyl)-4-(pyridin-2-ylmethyl)cyclopentane-1,3-dione] showed an SOLNI percentage phytotoxicity (Solanum nigrum (SOLNI) [1]) of 70%, an IPOHE percentage phytotoxicity [2] of 30% and an SEFTA percentage phytotoxicity (Setaria faberi (SETFA) [3]) of 100%. For the same compound, the AMARE percentage phytotoxicity [4] was 60%, the pest or weed control at 250 g/ha [5] was 90% and the pest or weed control at 250 g/ha [6] was 100%. For the same compound, the pest or weed control at 15.625 g/ha ([7]; 15.625 g/ha application rate) was 90%, the pest or weed control at 62.5 g/ha ([7]; 62.5 g/ha application rate) was 90% and the SETFA percentage phytotoxicity (Setaria faberi (SETFA) [8]; 15.625 g/ha application rate) was 80%. It also gave an SETFA percentage phytotoxicity (Setaria faberi (SETFA) [8]; 62.5 g/ha application rate) of 90%, a pest or weed control at 15.625 g/ha ([9]; 15.625 g/ha application rate) of 100% and a pest or weed control at 62.5 g/ha ([9]; 62.5 g/ha application rate) of 100%. The SOLNI percentage phytotoxicity (Solanum nigrum (SOLNI) [10]) was 90%, the IPOHE percentage phytotoxicity [11] was 70% and the SEFTA percentage phytotoxicity (Setaria faberi (SETFA) [12]) was 100%. It also gave an AMARE percentage phytotoxicity [13] of 90%, a pest or weed control at 250 g/ha [14] of 90% and a pest or weed control at 250 g/ha [15] of 100%.
With `CC#Cc1cc(C)c(C2=C(O)C[C@H](Cc3ccccn3)C2=O)c(C)c1` [Compound A-5] the AVEFA % phytotoxicity (Avena fatua (AVEFA) [16]; [21]) was 58%, the AVEFA % phytotoxicity (Avena fatua (AVEFA) [16]; [22]) was 23% and the AVEFA % phytotoxicity (Avena fatua (AVEFA) [16]; [23]) was 83%. The AVEFA % phytotoxicity (Avena fatua (AVEFA) [16]; [24]) was 68%, the LOLMU % phytotoxicity [17, 21] was 93% and the LOLMU % phytotoxicity [17, 22] was 68%. The LOLMU % phytotoxicity [17, 23] was 95%, the LOLMU % phytotoxicity [17, 24] was 99% and the ALOMY % phytotoxicity [18, 21] was 58%. For the same compound, the ALOMY % phytotoxicity [18, 22] was 63%, the ALOMY % phytotoxicity [18, 23] was 93% and the ALOMY % phytotoxicity [18, 24] was 98%. It also gave an SETVI % phytotoxicity (Setaria viridis (SETVI); [21]) of 80%, an SETVI % phytotoxicity (Setaria viridis (SETVI); [22]) of 85% and an SETVI % phytotoxicity (Setaria viridis (SETVI); [23]) of 98%. The SETVI % phytotoxicity (Setaria viridis (SETVI); [24]) was 95%, the POAAN % phytotoxicity (Poa annua (POAAN); [21]) was 0% and the POAAN % phytotoxicity (Poa annua (POAAN); [22]) was 13%. For the same compound, the POAAN % phytotoxicity (Poa annua (POAAN); [23]) was 18%, the POAAN % phytotoxicity (Poa annua (POAAN); [24]) was 5% and the “Winter Barley “Suzuka” phytotoxicity (%)” value (Winter Barley “Suzuka”; [21]) was 33%. The “Winter Barley “Suzuka” phytotoxicity (%)” value (Winter Barley “Suzuka”; [22]) was 0%, the “Winter Barley “Suzuka” phytotoxicity (%)” value (Winter Barley “Suzuka”; [23]) was 65% and the “Winter Barley “Suzuka” phytotoxicity (%)” value (Winter Barley “Suzuka”; [24]) was 0%. For the same compound, the “Winter Wheat “Hereward” phytotoxicity (%)” value (Winter Wheat “Hereward”; [21]) was 40%, the “Winter Wheat “Hereward” phytotoxicity (%)” value (Winter Wheat “Hereward”; [22]) was 0% and the “Winter Wheat “Hereward” phytotoxicity (%)” value (Winter Wheat “Hereward”; [23]) was 53%. The “Winter Wheat “Hereward” phytotoxicity (%)” value (Winter Wheat “Hereward”; [24]) was 0%, the “Spring Barley “Harrington” phytotoxicity (%)” value [19, 21] was 73% and the “Spring Barley “Harrington” phytotoxicity (%)” value [19, 22] was 3%. For the same compound, the “Spring Barley “Harrington” phytotoxicity (%)” value [19, 23] was 88%, the “Spring Barley “Harrington” phytotoxicity (%)” value [19, 24] was 18% and the “Spring Wheat “Teal” phytotoxicity (%)” value (Spring Wheat “Teal”; [21]) was 43%. The “Spring Wheat “Teal” phytotoxicity (%)” value (Spring Wheat “Teal”; [22]) was 0%, the “Spring Wheat “Teal” phytotoxicity (%)” value (Spring Wheat “Teal”; [23]) was 80% and the “Spring Wheat “Teal” phytotoxicity (%)” value (Spring Wheat “Teal”; [24]) was 0%. For the same compound, the pest or weed control at 250 g/ha [5] was 80%, the pest or weed control at 250 g/ha [6] was 90% and the pest or weed control at 250 g/ha (Avena fatua (AVEFA) [20]) was 90%. The pest or weed control at 250 g/ha (Lolium perenne (LOLPE)) was 80%.
